From ChEMBL document CHEMBL5512671, “Structure-Based Optimization of Novel Sterol 24-C-Methyltransferase Inhibitors for the Treatment of Candida albicans Infections” (J Med Chem, 2024)
Activity calls are given as the source filed them. The calls are words filed in the database; no cut-off is given here.

Legend:
[1] = Hemolytic activity in mouse RBC assessed as hemolysis at 2 to 32 ug/ml incubated for 60 mins by absorbance based analysis relative to control; assay type: toxicity, cell-based, Erythrocyte; settings: mouse red blood cells, at 2 to 32 µg/mL, dose 2-32 µg/ml, read-out: Activity
[2] = molecular target: T1, Sterol 24-C-methyltransferase (Candida albicans (strain SC5314 / ATCC MYA-2876) (Yeast)) (UniProt O74198); experiment: Inhibition of Candida albicans SC5314 Erg6 assessed as fold increase in zymosterol content at 1 ug/ml incubated for 12 hrs by GC-MS analysis; settings: dose 1.0 µg/ml
T1 sequence (whole entry): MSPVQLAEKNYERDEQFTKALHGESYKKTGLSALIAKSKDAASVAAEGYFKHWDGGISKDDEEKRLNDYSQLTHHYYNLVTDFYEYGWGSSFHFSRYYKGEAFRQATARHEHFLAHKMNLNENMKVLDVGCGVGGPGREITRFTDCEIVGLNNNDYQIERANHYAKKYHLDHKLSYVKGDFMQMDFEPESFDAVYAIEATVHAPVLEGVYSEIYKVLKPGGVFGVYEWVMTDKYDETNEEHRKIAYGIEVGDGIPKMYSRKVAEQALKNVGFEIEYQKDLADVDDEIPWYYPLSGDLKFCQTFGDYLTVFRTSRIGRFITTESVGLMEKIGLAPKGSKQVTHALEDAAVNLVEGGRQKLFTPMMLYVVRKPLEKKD

[3] = molecular target: T1, Sterol 24-C-methyltransferase (Candida albicans (strain SC5314 / ATCC MYA-2876) (Yeast)); experiment: Thermal stabilization of recombinant Candida albicans SC5314 Erg6 transfected in Escherichia coli BL21 (DE3) at 0.5 ug/ml incubated for 30 mins at 43 to 57 degreeC by Western blot analysis; settings: dose 0.5 µg/ml
[4] = tested on: Candida albicans; experiment: Downregulation of RAS1 gene level in Candida albicans SC5314 at 1 ug/ml incubated for 6 hrs by qPCR analysis; assay type: functional; settings: dose 1.0 µg/ml
[5] = tested on: Candida albicans; experiment: Downregulation of UME6 expression in Candida albicans SC5314 at 1 ug/ml incubated for 6 hrs by qPCR analysis; assay type: functional; settings: dose 1.0 µg/ml
[6] = tested on: Candida albicans; experiment: Downregulation of ALS3 expression in Candida albicans SC5314 at 1 ug/ml incubated for 6 hrs by qPCR analysis; assay type: functional; settings: dose 1.0 µg/ml
[7] = tested on: Candida albicans; experiment: Downregulation of HWP1 expression in Candida albicans SC5314 at 1 ug/ml incubated for 6 hrs by qPCR analysis; assay type: functional; settings: dose 1.0 µg/ml
[8] = tested on: Nakaseomyces glabratus; experiment: Antifungal activity against Candida glabrata CG2 assessed as inhibition of fungal growth incubated for 24 hrs by CLSI protocol based broth microdilution method; assay type: functional
[9] = tested on: [Candida] auris; experiment: Antifungal activity against Candida auris CBS12774 assessed as effect on cell size at 1 ug/ml measured after 6 hrs by microscopy based analysis; assay type: functional, organism-based; settings: Candidozyma auris, dose 1.0 µg/ml
[10] = tested on: Candida parapsilosis; experiment: Antifungal activity against Candida parapsilosis CP1 assessed as inhibition of hyphae formation at 1 ug/ml measured after 6 hrs by microscopy based analysis; assay type: functional, organism-based; settings: dose 1.0 µg/ml
[11] = tested on: Candida parapsilosis; experiment: Antifungal activity against Candida parapsilosis CP1 assessed as effect on structure at 1 ug/ml measured after 6 hrs by microscopy based analysis; assay type: functional, organism-based; settings: dose 1.0 µg/ml
[12] = tested on: Nakaseomyces glabratus; experiment: Antifungal activity against Candida glabrata CG2 assessed as inhibition of hyphae formation at 1 ug/ml measured after 6 hrs by microscopy based analysis; assay type: functional, organism-based; settings: dose 1.0 µg/ml
[13] = tested on: Nakaseomyces glabratus; experiment: Antifungal activity against Candida glabrata CG2 assessed as effect on cell size at 1 ug/ml measured after 6 hrs by microscopy based analysis; assay type: functional, organism-based; settings: dose 1.0 µg/ml
[14] = tested on: Candida albicans; experiment: Antifungal activity against Candida albicans SC5314 assessed as inhibition of hyphae growth measured after 30 passages; assay type: functional, organism-based
[15] = tested on: Candida albicans; experiment: Synergistic antifungal activity against Candida albicans SC5314 assessed as inhibition of fungal growth incubated for 24 hrs in presence of terbinafine by broth microdilution checkerboard assay; assay type: functional
[16] = tested on: Candida albicans; experiment: Synergistic antifungal activity against Candida albicans SC5314 assessed as fractional inhibitory concentration index incubated for 24 hrs in presence of terbinafine by broth microdilution checkerboard assay; assay type: functional
[17] = tested on: Candida albicans; experiment: Fungistatic activity against Candida albicans SC5314 at 1 ug/ml incubated for 3 hrs in presence of tridemorph by SYTOX staining based analysis; assay type: functional, organism-based; settings: dose 1.0 µg/ml
[18] = tested on: Candida albicans; experiment: Fungistatic activity against Candida albicans SC5314 at 1 ug/ml incubated for 3 hrs in presence of terbinafine by SYTOX staining based analysis; assay type: functional, organism-based; settings: dose 1.0 µg/ml
[19] = tested on: Candida albicans; experiment: Antifungal activity against Candida albicans SC5314 infected in Balb/C mouse candidiasis model assessed as decrease in skin fungal burden by measuring fold change at 0.5% administered topically and measured after 72 hrs; assay type: functional
[20] = tested on: Candida albicans; experiment: Antifungal activity against Candida albicans SC5314 infected in Balb/C mouse candidiasis model assessed as decrease in skin fungal burden by measuring fold change at 0.5 % administered topically and measured after 72 hrs in presence of tridemorph; assay type: functional
[21] = tested on: Candida albicans; experiment: Antifungal activity against Candida albicans SC5314 infected in Balb/C mouse candidiasis model assessed as decrease in skin fungal burden by measuring fold change at 0.5 % administered topically and measured after 72 hrs in presence of terbinafine; assay type: functional
[22] = tested on: Candida albicans; experiment: Antifungal activity against Candida albicans SC5314 infected in Balb/C mouse candidiasis model assessed as filamentation defect at 0.5 % administered topically and measured after 72 hrs by PAS staining based analysis; assay type: functional, organism-based
[23] = tested on: Candida albicans; experiment: Antifungal activity against Candida albicans SC5314 infected in Balb/C mouse candidiasis model assessed as filamentation defect at 0.5 % administered topically and measured after 72 hrs in presence of tridemorph by PAS staining based analysis; assay type: functional, organism-based
[24] = tested on: Candida albicans; experiment: Antifungal activity against Candida albicans SC5314 infected in Balb/C mouse candidiasis model assessed as filamentation defect at 0.5 % administered topically and measured after 72 hrs in presence of terbinafine by PAS staining based analysis; assay type: functional, organism-based
[25] = tested on: Candida albicans; experiment: Antifungal activity against Candida albicans SC5314 infected in Balb/C mouse candidiasis model assessed as appearance of inflammatory infiltrates at 0.5 % administered topically and measured after 72 hrs in presence of tridemorph by H and E staining based analysis; assay type: functional, organism-based
[26] = tested on: Candida albicans; experiment: Antifungal activity against Candida albicans SC5314 infected in Balb/C mouse candidiasis model assessed as appearance of inflammatory infiltrates at 0.5 % administered topically and measured after 72 hrs in presence of terbinafine by H and E staining based analysis; assay type: functional, organism-based
[27] = tested on: Candida albicans; experiment: Antifungal activity against Candida albicans SC5314 assessed as inhibition of hyphae growth measured after 6 hrs cultured under RPMI1640 medium by microscopy based analysis; assay type: functional, organism-based; settings: dose 0.25-1 µg/ml
[28] = tested on: Candida albicans; experiment: Antifungal activity against Candida albicans SC5314 assessed as inhibition of hyphae growth measured after 5 days cultured under solid spider agar medium by microscopy based analysis; assay type: functional, organism-based; settings: dose 0.25-1 µg/ml, time 5.0 day
[29] = tested on: Candida albicans; experiment: Antifungal activity against Candida albicans SC5314 assessed as inhibition of morphological transition at 0.5 ug/ml measured after 5 days cultured under solid spider agar medium by microscopy based analysis relative to control; assay type: functional; parameters: scale not given: the % may be the effect or the level left; settings: dose 0.5 µg/ml; time 5 day
[30] = tested on: Candida albicans; experiment: Antifungal activity against Candida albicans SC5314 assessed as inhibition of morphological transition at 0.5 ug/ml measured after 5 days cultured under YPD embedded agar medium by microscopy based analysis relative to control; assay type: functional; parameters: scale not given: the % may be the effect or the level left; settings: dose 0.5 µg/ml; time 5 day
[31] = tested on: Candida albicans; experiment: Antibiofilm activity against Candida albicans CA14-TDH3-GFP at 0.5 to 2 ug/ml incubated for 24 hrs by XTT reduction assay; assay type: functional, organism-based; settings: dose 0.5-2 µg/ml

For `Cc1c(-n2c(-c3ccc4ccccc4c3)cs/c2=N\c2ccccc2)c(=O)n(-c2ccccc2)n1C`, the hemolysis at 1 h [1] was < 1%, the fold change (FC) [2] was 11 and the Activity [3] was “Active”. For the same compound, the Activity [4] was “Active”, the Activity [5] was “Active” and the Activity [6] was “Active”. For the same compound, the Activity [7] was “Active”, the MIC [8] was > 128 µg/mL and the Activity [9] was “inactive”. For the same compound, the Activity [10] was “Active”, the Activity [11] was “inactive” and the Activity [12] was “Active”. The Activity [13] was “inactive”, the Activity [14] was “Active” and the MIC80 [15] was 1 µg/mL. The “fractional inhibitory concentration index (FICI)” value [16] was <0.1, the Activity [17] was “Active” and the Activity [18] was “Active”. For the same compound, the “fold change (FC)” value [19] was 2.86, the “fold change (FC)” value [20] was 60.26 and the “fold change (FC)” value [21] was 59.11. For the same compound, the Activity [22] was “Active”, the Activity [23] was “Active” and the Activity [24] was “Active”. For the same compound, the Activity [25] was “inactive”, the Activity [26] was “inactive” and the Activity [27] was “Dose-Dependent Effect”. The Activity [28] was “Dose-Dependent Effect”, the Activity [29] was 100% and the Activity [30] was 100%. The Activity [31] was “Active”.
